US20240116985A1, “STAPLED PEPTIDES AND METHODS THEREOF” (priority 2020, published 2024)
In brackets after ≈: the same amount, converted by molar mass. Like-named read-outs stand apart in the source and are kept apart here.

Columns and labels:
[1] = biological target: T1, full-length beta-Catenin (Uniprot ID P35222) (Homo sapiens, UniProt P35222); assay: Fluorescence polarization IC50 (beta-catenin / 5FAM-TCF4 10-53 competition); assay type: binding
T1 construct: 10 nM full-length beta-Catenin (Uniprot ID P35222)
T1 sequence (P35222 1-781): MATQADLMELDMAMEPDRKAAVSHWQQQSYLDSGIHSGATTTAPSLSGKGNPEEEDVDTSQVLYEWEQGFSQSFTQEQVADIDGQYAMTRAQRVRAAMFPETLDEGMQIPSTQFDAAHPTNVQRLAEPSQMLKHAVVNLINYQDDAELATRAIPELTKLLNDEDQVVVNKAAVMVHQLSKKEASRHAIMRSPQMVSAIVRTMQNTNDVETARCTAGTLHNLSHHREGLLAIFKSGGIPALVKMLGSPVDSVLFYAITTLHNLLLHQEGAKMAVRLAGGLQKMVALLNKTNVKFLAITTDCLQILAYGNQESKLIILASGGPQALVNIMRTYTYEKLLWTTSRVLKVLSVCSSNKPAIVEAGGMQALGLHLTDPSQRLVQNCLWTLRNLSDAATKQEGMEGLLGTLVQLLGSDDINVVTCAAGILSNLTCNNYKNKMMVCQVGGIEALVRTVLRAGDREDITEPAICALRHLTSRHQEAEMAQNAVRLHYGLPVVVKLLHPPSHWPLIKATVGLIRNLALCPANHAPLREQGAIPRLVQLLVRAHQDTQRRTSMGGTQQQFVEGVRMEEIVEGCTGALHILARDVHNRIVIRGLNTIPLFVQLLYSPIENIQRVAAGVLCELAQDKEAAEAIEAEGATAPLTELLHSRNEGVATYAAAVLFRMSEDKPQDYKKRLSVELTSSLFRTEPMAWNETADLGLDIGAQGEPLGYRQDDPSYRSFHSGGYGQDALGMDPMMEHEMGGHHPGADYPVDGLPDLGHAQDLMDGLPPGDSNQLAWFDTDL

[2] = CHI Log D procedure; assay type: physicochemical; conditions: for CHI Log D: pH 7.4; for chromatographic logD: pH 7.4, CHI Log D
[3] = Solubility in PBS; assay type: physicochemical
Summary of the method: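 HPLC quantitation of peptide remaining in the PBS supernatant after ultracentrifugation, referenced to a 50 μM solution in DMSO.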

[4] = biological target: T2, beta-catenin/TCF4 engagement (Homo sapiens, UniProt P35222); assay: Nano-BRET target engagement assay (B-cat-Halo & TCF4-Luc in HEK293 cells); assay type: cell-based; conditions: read-out: NanoBRET Abs IC50
T2 construct: expressed in transfected cells; host or cells: HEK293
T2 sequence (P35222 1-781): T1 sequence (P35222 1-781)

[5] = fluorescence polarization, beta-catenin, read-out: FP EC50

Row | IC50 [1, 5] [nM] | IC50 ([1]; read-out: beta-Catenin FP IC50) [nM] | CHI Log D [2] | Solubility [3] [µM] | IC50 [4] [µM] | chromatographic logD [2] | Solubility ([3]; Solubility (uM)) [µM] | IC50 ([4]; absolute IC50) [µM] | SMILES
1 | 22 | 22 | 2.8 | 44 (≈ 83.8 µg/mL) | 6.3 | – | – | – | CC(=O)N1CCC[C@]12CC=CCCCC1(CCCC=CCCCCCC[C@@](C)(C(=O)N[C@@H](Cc3ccccc3Cl)C(=O)N[C@@H](Cc3csc4ccccc34)C(=O)N[C@@H](CCC(N)=O)C(N)=O)NC(=O)[C@H]([C@@H](C)O)NC(=O)[C@H](Cc3ccccc3)NC(=O)[C@H](C)NC(=O)[C@H](C)NC(=O)[C@H](CCC(=O)O)NC(=O)[C@H](CC(=O)O)NC1=O)NC(=O)[C@H](CC(C)(C)C)NC(=O)[C@H](CC(=O)O)NC2=O (stereo partly drawn) [I-1088, Ac-PL3-Asp-Npg-B5-Asp-Glu-Ala-Ala-Phe-Thr-S8-2ClF-BztA-Gln-NH2]
2 | 12 | 12 | 2.826 | 43 (≈ 81.9 µg/mL) | 8.9 | – | – | – | CC(=O)N1CCC[C@]12CC=CCCCC1(CCCC=CCCCCCC[C@@](C)(C(=O)N[C@@H](Cc3ccccc3Cl)C(=O)N[C@@H](Cc3csc4ccccc34)C(=O)N[C@@H](CCC(N)=O)C(N)=O)NC(=O)[C@H]([C@@H](C)O)NC(=O)[C@H](Cc3ccccc3)NC(=O)[C@H](C)NC(=O)[C@H](C)NC(=O)[C@H](CCC(=O)O)NC(=O)[C@H](CC(=O)O)NC1=O)NC(=O)[C@H](CC(C)(C)C)NC(=O)[C@H](CC(=O)O)NC2=O (stereo partly drawn) [I-1089, Ac-PL3-Asp-Npg-B5-Asp-Glu-Ala-Ala-Phe-Thr-S8-2C1F-BztA-Gln-NH2]
3 | – | 18 | – | – | 6.1 | 2.98 | 39 (≈ 72.7 µg/mL) | – | CC(=O)N1CCC[C@]12CC=CCCCC1(CCCC=CCCCCCC[C@@](C)(C(=O)N[C@@H](Cc3ccccc3Cl)C(=O)N[C@@H](Cc3csc4ccccc34)C(=O)N[C@H](C(N)=O)[C@@H](C)O)NC(=O)[C@H]([C@@H](C)O)NC(=O)[C@H](Cc3ccccc3)NC(=O)[C@H](C)NC(=O)[C@H](C)NC(=O)[C@H](CC(=O)O)NC(=O)[C@H](CC(=O)O)NC1=O)NC(=O)[C@H](CC(C)(C)C)NC(=O)[C@H](CC(=O)O)NC2=O (stereo partly drawn) [I-1090, Ac-PL3-Asp-Npg-B5-Asp-Asp-Ala-Ala-Phe-Thr-S8-2C1F-BztA-Thr-NH2]
4 | – | 27 | – | – | 11.4 | 3.04 | 33 (≈ 62 µg/mL) | – | CC(=O)N1CCC[C@]12CC=CCCCC1(CCCC=CCCCCCC[C@@](C)(C(=O)N[C@@H](Cc3ccccc3Cl)C(=O)N[C@@H](Cc3csc4ccccc34)C(=O)N[C@H](C(N)=O)[C@@H](C)O)NC(=O)[C@H]([C@@H](C)O)NC(=O)[C@H](Cc3ccccc3)NC(=O)[C@H](C)NC(=O)[C@H](C)NC(=O)[C@H](CCC(=O)O)NC(=O)[C@H](CC(=O)O)NC1=O)NC(=O)[C@H](CC(C)(C)C)NC(=O)[C@H](CC(=O)O)NC2=O (stereo partly drawn) [I-1091, Ac-PL3-Asp-Npg-B5-Asp-Glu-Ala-Ala-Phe-Thr-S8-2C1F-BztA-Thr-NH2]
5 | – | 26 | – | – | 7.7 | 3.17 | 28 (≈ 52.2 µg/mL) | – | CC(=O)N1CCC[C@]12CC=CCCCC1(CCCC=CCCCCCC[C@@](C)(C(=O)N[C@@H](Cc3ccccc3Cl)C(=O)N[C@@H](Cc3csc4ccccc34)C(=O)N[C@@H](C(N)=O)[C@H](C)O)NC(=O)[C@H]([C@@H](C)O)NC(=O)[C@H](Cc3ccccc3)NC(=O)[C@H](C)NC(=O)[C@H](C)NC(=O)[C@H](CC(=O)O)NC(=O)[C@H](CC(=O)O)NC1=O)NC(=O)[C@H](CC(C)(C)C)NC(=O)[C@H](CC(=O)O)NC2=O (stereo partly drawn) [I-1092, Ac-PL3-Asp-Npg-B5-Asp-Asp-Ala-Ala-Phe-Thr-S8-2C1F-BztA-dThr-NH2]
6 | – | 17 | – | 10 (≈ 19.2 µg/mL) | 8.6 | 3.18 | – | – | CC(=O)N1CCC[C@]12CC=CCCCC1(CCCC=CCCCCCC[C@@](C)(C(=O)N[C@@H](Cc3ccccc3Cl)C(=O)N[C@@H](Cc3csc4ccccc34)C(=O)N[C@@H](CCC(N)=O)C(N)=O)NC(=O)[C@H](CC(C)C)NC(=O)[C@H](Cc3ccccc3)NC(=O)[C@H](C)NC(=O)[C@H](C)NC(=O)[C@H](CCC(=O)O)NC(=O)[C@H](CC(=O)O)NC1=O)NC(=O)[C@H](CC(C)(C)C)NC(=O)[C@H](CC(=O)O)NC2=O (stereo partly drawn) [I-1096, Ac-PL3-Asp-Npg-B5-Asp-Glu-Ala-Ala-Phe-Leu-S8-2C1F-BztA-Gln-NH2]
7 | – | 9 | – | – | – | 2.16 | 47 (≈ 86.7 µg/mL) | 9 | CC(=O)N1CCC[C@]12CC=CCCCC1(CCCC=CCCCOC(=O)N3CC[C@@](C(=O)N[C@@H](Cc4ccccc4)C(=O)N[C@@H](Cc4csc5ccccc45)C(=O)N[C@@H](CO)C(N)=O)(C3)NC(=O)[C@H](CO)NC(=O)[C@H](Cc3ccccc3)NC(=O)[C@H](C)NC(=O)[C@H](C)NC(=O)[C@H](CC(=O)O)NC(=O)[C@H](CC(=O)O)NC1=O)NC(=O)[C@H](CC(C)(C)C)NC(=O)[C@H](CC(=O)O)NC2=O (stereo partly drawn) [I-1099, Ac-PL3-Asp-Npg-B5-Asp-Asp-Ala-Ala-Phe-Ser-PyrS2-Phe-BztA-Ser-NH2]
8 | – | 16 | – | – | 24.3 | 2.36 | 46 (≈ 86 µg/mL) | – | CC(=O)N1CCC[C@]12CC=CCCCC1(CCCC=CCCCOC(=O)N3CC[C@@](C(=O)N[C@@H](Cc4ccccc4)C(=O)N[C@@H](Cc4csc5ccccc45)C(=O)N[C@@H](CO)C(N)=O)(C3)NC(=O)[C@H](CO)NC(=O)[C@H](Cc3ccccc3)NC(=O)[C@H](C)NC(=O)[C@H](C)NC(=O)[C@H](CC(=O)O)NC(=O)[C@H](CC(=O)O)NC1=O)NC(=O)[C@H](CC1CCCCC1)NC(=O)[C@H](CC(=O)O)NC2=O (stereo partly drawn) [I-1100, Ac-PL3-Asp-Cha-B5-Asp-Asp-Ala-Ala-Phe-Ser-PyrS2-Phe-BztA-Ser-NH2]
9 | – | 14 | – | – | 27 | 2.22 | 48 (≈ 89.4 µg/mL) | – | CC(=O)N1CCC[C@]12CC=CCCCC1(CCCC=CCCCOC(=O)N3CC[C@@](C(=O)N[C@@H](Cc4ccccc4F)C(=O)N[C@@H](Cc4csc5ccccc45)C(=O)N[C@@H](CO)C(N)=O)(C3)NC(=O)[C@H](CO)NC(=O)[C@H](Cc3ccccc3)NC(=O)[C@H](C)NC(=O)[C@H](C)NC(=O)[C@H](CC(=O)O)NC(=O)[C@H](CC(=O)O)NC1=O)NC(=O)[C@H](CC(C)(C)C)NC(=O)[C@H](CC(=O)O)NC2=O (stereo partly drawn) [I-1101, Ac-PL3-Asp-Npg-B5-Asp-Asp-Ala-Ala-Phe-Ser-PyrS2-2FF-BztA-Ser-NH2]
10 | – | 15 | – | – | 16.7 | 2.18 | 46 (≈ 86.2 µg/mL) | – | COc1ccccc1C[C@H](NC(=O)[C@]12CCN(C1)C(=O)OCCCC=CCCCC1(CCCC=CC[C@]3(CCCN3C(C)=O)C(=O)N[C@@H](CC(=O)O)C(=O)N[C@@H](CC(C)(C)C)C(=O)N1)C(=O)N[C@@H](CC(=O)O)C(=O)N[C@@H](CC(=O)O)C(=O)N[C@@H](C)C(=O)N[C@@H](C)C(=O)N[C@@H](Cc1ccccc1)C(=O)N[C@@H](CO)C(=O)N2)C(=O)N[C@@H](Cc1csc2ccccc12)C(=O)N[C@@H](CO)C(N)=O (stereo partly drawn) [I-1103, Ac-PL3-Asp-Npg-B5-Asp-Asp-Ala-Ala-Phe-Ser-PyrS2-2OMeF-BztA-Ser-NH2]
11 | – | 10 | – | – | 17.7 | 2.38 | 48 (≈ 91.2 µg/mL) | – | COc1ccccc1C[C@H](NC(=O)[C@]12CCN(C1)C(=O)OCCCC=CCCCC1(CCCC=CC[C@]3(CCCN3C(C)=O)C(=O)N[C@@H](CC(=O)O)C(=O)N[C@@H](CC3CCCCC3)C(=O)N1)C(=O)N[C@@H](CC(=O)O)C(=O)N[C@@H](CC(=O)O)C(=O)N[C@@H](C)C(=O)N[C@@H](C)C(=O)N[C@@H](Cc1ccccc1)C(=O)N[C@@H](CO)C(=O)N2)C(=O)N[C@@H](Cc1csc2ccccc12)C(=O)N[C@@H](CO)C(N)=O (stereo partly drawn) [I-1104, Ac-PL3-Asp-Cha-B5-Asp-Asp-Ala-Ala-Phe-Ser-PyrS2-2OMeF-BztA-Ser-NH2]
12 | – | 36 | – | – | – | 2.33 | 48 (≈ 88.8 µg/mL) | > 20 | CC(=O)N1CCC[C@]12CC=CCCCC1(CCCC=CCCCOC(=O)N3CC[C@@](C(=O)N[C@@H](Cc4ccccc4)C(=O)N[C@@H](Cc4csc5ccccc45)C(=O)N[C@@H](CO)C(N)=O)(C3)NC(=O)[C@H](CO)NC(=O)[C@H](CC3CCCCC3)NC(=O)[C@H](C)NC(=O)[C@H](C)NC(=O)[C@H](CC(=O)O)NC(=O)[C@H](CC(=O)O)NC1=O)NC(=O)[C@H](CC(C)(C)C)NC(=O)[C@H](CC(=O)O)NC2=O (stereo partly drawn) [I-1105, Ac-PL3-Asp-Npg-B5-Asp-Asp-Ala-Ala-Cha-Ser-PyrS2-Phe-BztA-Ser-NH2]
